Test results published in ChEMBL document CHEMBL1141566, “Synthesis and antitumor evaluation of bis aza-anthracene-9,10-diones and bis aza-anthrapyrazole-6-ones” (2008).

Tests used:
HT-29 [1] = test: Effect on proapoptotic BID gene expression in human HT29 cells after 6 hrs; format: functional
HT-29 [2] = test: Effect on proapoptotic CARD6 gene expression in human HT29 cells after 6 hrs; format: functional
HT-29 [3] = test: Effect on proapoptotic CASP7 gene expression in human HT29 cells after 6 hrs; format: functional
HT-29 [4] = test: Effect on proapoptotic FAS gene expression in human HT29 cells after 6 hrs; format: functional
HT-29 [5] = test: Effect on proapoptotic TNFRSF11B gene expression in human HT29 cells after 6 hrs; format: functional
HT-29 [6] = test: Effect on apoptotic BCL2L1 gene expression in human HT29 cells after 12 hrs; format: functional
HT-29 [7] = test: Effect on proapoptotic TRAF4 gene expression in human HT29 cells after 12 hrs; format: functional
HT-29 [8] = test: Effect on proapoptotic FADD gene expression in human HT29 cells after 6 hrs; format: functional
HT-29 [9] = test: Effect on apoptotic BIRC8 gene expression in human HT29 cells after 6 hrs; format: functional
HT-29 [10] = test: Effect on proapoptotic BAK1 gene expression in human HT29 cells after 6 hrs; format: functional
HT-29 [11] = test: Effect on proapoptotic BNIP1 gene expression in human HT29 cells after 6 hrs; format: functional
HT-29 [12] = test: Effect on proapoptotic BNIP3L gene expression in human HT29 cells after 12 hrs; format: functional
HT-29 [13] = test: Effect on apoptotic GADD45A gene expression in human HT29 cells after 6 hrs; format: functional
HT-29 [14] = test: Effect on proapoptotic TRADD gene expression in human HT29 cells after 12 hrs; format: functional
HT-29 [15] = test: Effect on apoptosis in human HT29 PI+/AnnV- cells after 6 hrs by biparametric flow cytometric analysis; format: functional; conditions: HT-29, 6 h, read-out: LC50 (the source's name)
HT-29 [16] = test: Effect on proapoptotic BCLAF1 gene expression in human HT29 cells after 12 hrs; format: functional
HT-29 [17] = test: Effect on apoptosis in human HT29 PI-/AnnV- cells after 6 hrs by biparametric flow cytometric analysis; format: functional; conditions: HT-29, 6 h, read-out: LC50 (the source's name)
HT-29 [18] = test: Effect on proapoptotic BIK gene expression in human HT29 cells after 6 hrs; format: functional
HT-29 [19] = test: Effect on proapoptotic CASP7 gene expression in human HT29 cells after 12 hrs; format: functional
HT-29 [20] = test: Effect on apoptotic BNIP2 gene expression in human HT29 cells after 6 hrs; format: functional
HT-29 [21] = test: Effect on apoptotic ABL1 gene expression in human HT29 cells after 12 hrs; format: functional
HT-29 [22] = test: Effect on apoptotic BCL2L10 gene expression in human HT29 cells after 12 hrs; format: functional
HT-29 [23] = test: Effect on apoptosis in human HT29 PI-/AnnV+ cells after 6 hrs by biparametric flow cytometric analysis; format: functional; conditions: HT-29, 6 h, read-out: LC50 (the source's name)
HT-29 [24] = test: Effect on apoptotic MCL1 gene expression in human HT29 cells after 6 hrs; format: functional
HT-29 [25] = test: Effect on proapoptotic CASP9 gene expression in human HT29 cells after 6 hrs; format: functional
HT-29 [26] = test: Effect on apoptotic NOL3 gene expression in human HT29 cells after 6 hrs; format: functional
HT-29 [27] = test: Effect on apoptotic BIRC3 gene expression in human HT29 cells after 6 hrs; format: functional
HT-29 [28] = test: Effect on apoptotic ABL1 gene expression in human HT29 cells after 6 hrs; format: functional
HT-29 [29] = test: Effect on proapoptotic CASP9 gene expression in human HT29 cells after 12 hrs; format: functional
HT-29 [30] = test: Effect on apoptotic NOL3 gene expression in human HT29 cells after 12 hrs; format: functional
HT-29 [31] = test: Effect on apoptotic CFLAR gene expression in human HT29 cells after 6 hrs; format: functional
HT-29 [32] = test: Effect on apoptotic BIRC4 gene expression in human HT29 cells after 6 hrs; format: functional
HT-29 [33] = test: Effect on proapoptotic BCL2 gene expression in human HT29 cells after 6 hrs; format: functional
HT-29 [34] = test: Effect on apoptotic BNIP2 gene expression in human HT29 cells after 12 hrs; format: functional
HT-29 [35] = test: Effect on proapoptotic BCL2L11 gene expression in human HT29 cells after 6 hrs; format: functional
HT-29 [36] = test: Effect on apoptotic BRAF gene expression in human HT29 cells after 6 hrs; format: functional
HT-29 [37] = test: Effect on apoptosis in human HT29 PI+/AnnV+ cells after 24 hrs by biparametric flow cytometric analysis; format: functional; conditions: HT-29, 24 h, read-out: LC50 (the source's name)
[38] = Ratio of Kapp for synthetic poly(dA-dT)]2 oligonucleotide to Kapp for synthetic poly(dG-dC)]2 oligonucleotide
HT-29 [39] = test: Effect on proapoptotic TRAF4 gene expression in human HT29 cells after 6 hrs; format: functional
HT-29 [40] = test: Effect on apoptosis in human HT29 PI+/AnnV+ cells after 6 hrs by biparametric flow cytometric analysis; format: functional; conditions: HT-29, 6 h, read-out: LC50 (the source's name)
HT-29 [41] = test: Effect on proapoptotic TRADD gene expression in human HT29 cells after 6 hrs; format: functional
HT-29 [42] = test: Effect on proapoptotic CD27 gene expression in human HT29 cells after 12 hrs; format: functional
HT-29 [43] = test: Effect on proapoptotic BFAR gene expression in human HT29 cells after 6 hrs; format: functional
HT-29 [44] = test: Effect on apoptosis in human HT29 PI+/AnnV- cells after 12 hrs by biparametric flow cytometric analysis; format: functional; conditions: HT-29, 12 h, read-out: LC50 (the source's name)
HT-29 [45] = test: Effect on apoptosis in human HT29 PI+/AnnV+ cells after 12 hrs by biparametric flow cytometric analysis; format: functional; conditions: HT-29, 12 h, read-out: LC50 (the source's name)
HT-29 [46] = test: Effect on proapoptotic CIDEB gene expression in human HT29 cells after 12 hrs; format: functional
HT-29 [47] = test: Effect on proapoptotic CD70 gene expression in human HT29 cells after 6 hrs; format: functional
HT-29 [48] = test: Effect on apoptosis in human HT29 PI-/AnnV- cells after 12 hrs by biparametric flow cytometric analysis; format: functional; conditions: HT-29, 12 h, read-out: LC50 (the source's name)
HT-29 [49] = test: Effect on apoptosis in human HT29 PI-/AnnV- cells after 24 hrs by biparametric flow cytometric analysis; format: functional; conditions: HT-29, 24 h, read-out: LC50 (the source's name)
HT-29 [50] = test: Effect on apoptosis in human HT29 PI-/AnnV+ cells after 24 hrs by biparametric flow cytometric analysis; format: functional; conditions: HT-29, 24 h, read-out: LC50 (the source's name)
HT-29 [51] = test: Effect on proapoptotic CASP8 gene expression in human HT29 cells after 6 hrs; format: functional
HT-29 [52] = test: Effect on apoptotic BIRC4 gene expression in human HT29 cells after 12 hrs; format: functional
HT-29 [53] = test: Effect on proapoptotic BNIP3L gene expression in human HT29 cells after 6 hrs; format: functional
HT-29 [54] = test: Effect on apoptotic NAIP gene expression in human HT29 cells after 6 hrs; format: functional
HT-29 [55] = test: Effect on proapoptotic CASP6 gene expression in human HT29 cells after 6 hrs; format: functional
HT-29 [56] = test: Effect on proapoptotic TNFRSF21 gene expression in human HT29 cells after 6 hrs; format: functional
HT-29 [57] = test: Effect on proapoptotic CD27 gene expression in human HT29 cells after 6 hrs; format: functional
HT-29 [58] = test: Effect on apoptosis in human HT29 PI-/AnnV+ cells after 12 hrs by biparametric flow cytometric analysis; format: functional; conditions: HT-29, 12 h, read-out: LC50 (the source's name)
HT-29 [59] = test: Effect on proapoptotic BFAR gene expression in human HT29 cells after 12 hrs; format: functional
HT-29 [60] = test: Effect on proapoptotic CIDEB gene expression in human HT29 cells after 6 hrs; format: functional
HT-29 [61] = test: Effect on proapoptotic BCL2 gene expression in human HT29 cells after 12 hrs; format: functional
HT-29 [62] = test: Effect on proapoptotic CARD8 gene expression in human HT29 cells after 6 hrs; format: functional
HT-29 [63] = test: Effect on apoptotic BCL2L10 gene expression in human HT29 cells after 6 hrs; format: functional
HT-29 [64] = test: Effect on proapoptotic TRAF2 gene expression in human HT29 cells after 6 hrs; format: functional
HT-29 [65] = test: Effect on proapoptotic CD70 gene expression in human HT29 cells after 12 hrs; format: functional
HT-29 [66] = test: Effect on proapoptotic BAX gene expression in human HT29 cells after 12 hrs; format: functional
HT-29 [67] = test: Effect on apoptotic NAIP gene expression in human HT29 cells after 12 hrs; format: functional
HT-29 [68] = test: Effect on proapoptotic BAK1 gene expression in human HT29 cells after 12 hrs; format: functional
HT-29 [69] = test: Effect on proapoptotic NOD1 gene expression in human HT29 cells after 6 hrs; format: functional
HT-29 [70] = test: Effect on proapoptotic TP53 gene expression in human HT29 cells after 6 hrs; format: functional
HT-29 [71] = test: Effect on proapoptotic BAX gene expression in human HT29 cells after 6 hrs; format: functional
HT-29 [72] = test: Effect on proapoptotic TRAF3 gene expression in human HT29 cells after 6 hrs; format: functional
HT-29 [73] = test: Cytotoxicity against human HT29 cells after 72 hrs; format: functional; conditions: HT-29, 72 h
HT-29 [74] = test: Effect on apoptosis in human HT29 PI+/AnnV- cells after 24 hrs by biparametric flow cytometric analysis; format: functional; conditions: HT-29, 24 h, read-out: LC50 (the source's name)

CN(C)CCNc1ccc(NCCCN(C)CCCNc2ccc(NCCN(C)C)c3c2C(=O)c2cnccc2C3=O)c2c1C(=O)c1ccncc1C2=O
Fold change (HT-29 [1]): 4.3 | Fold change (HT-29 [2]): -5 | Fold change (HT-29 [3]): 6.4 | Fold change (HT-29 [4]): 2.2 | Fold change (HT-29 [5]): 2.1 | Fold change (HT-29 [6]): -5.9 | Fold change (HT-29 [7]): 23 | Fold change (HT-29 [8]): 2.4 | Fold change (HT-29 [9]): -2.3 | Fold change (HT-29 [10]): 4.5 | Fold change (HT-29 [11]): 3 | Fold change (HT-29 [12]): 3.6 | Fold change (HT-29 [13]): 3 | Fold change (HT-29 [14]): 2.5 | CC50 (HT-29 [15]): 3.3 µM | Fold change (HT-29 [16]): 136 | CC50 (HT-29 [17]): 88.5 µM | Fold change (HT-29 [18]): 5.2 | Fold change (HT-29 [19]): 3 | Fold change (HT-29 [20]): -2.9 | Fold change (HT-29 [21]): 58 | Fold change (HT-29 [22]): 7.8 | CC50 (HT-29 [23]): 7.4 µM | Fold change (HT-29 [24]): -10 | Fold change (HT-29 [25]): 3 | Fold change (HT-29 [26]): 4.7 | Fold change (HT-29 [27]): 2.5 | Fold change (HT-29 [28]): 33 | Fold change (HT-29 [29]): 8.5 | Fold change (HT-29 [30]): 15 | Fold change (HT-29 [31]): 4 | Fold change (HT-29 [32]): 9.3 | Fold change (HT-29 [33]): 4.2 | Fold change (HT-29 [34]): -3.3 | Fold change (HT-29 [35]): 7.7 | Fold change (HT-29 [36]): 2.4 | CC50 (HT-29 [37]): 18.3 µM | Ratio [38]: 2.5 | Fold change (HT-29 [39]): 94 | CC50 (HT-29 [40]): 0.8 µM | Fold change (HT-29 [41]): 4.3 | Fold change (HT-29 [42]): 2.2 | Fold change (HT-29 [43]): 5.4 | CC50 (HT-29 [44]): 5.3 µM | CC50 (HT-29 [45]): 1.2 µM | Fold change (HT-29 [46]): 4.4 | Fold change (HT-29 [47]): 2.2 | CC50 (HT-29 [48]): 83.2 µM | CC50 (HT-29 [49]): 37.1 µM | CC50 (HT-29 [50]): 36.3 µM | Fold change (HT-29 [51]): 2.5 | Fold change (HT-29 [52]): 2 | Fold change (HT-29 [53]): 7.4 | Fold change (HT-29 [54]): 9.6 | Fold change (HT-29 [55]): 3 | Fold change (HT-29 [56]): 3.7 | Fold change (HT-29 [57]): 2.2 | CC50 (HT-29 [58]): 10.3 µM | Fold change (HT-29 [59]): -2.5 | Fold change (HT-29 [60]): 9.3 | Fold change (HT-29 [61]): -5.9 | Fold change (HT-29 [62]): 4 | Fold change (HT-29 [63]): 3.1 | Fold change (HT-29 [64]): 2.4 | Fold change (HT-29 [65]): 2.2 | Fold change (HT-29 [66]): 3 | Fold change (HT-29 [67]): 52 | Fold change (HT-29 [68]): 4.1 | Fold change (HT-29 [69]): 4.2 | Fold change (HT-29 [70]): 3 | Fold change (HT-29 [71]): 5.3 | Fold change (HT-29 [72]): 4.5 | GI50 (HT-29 [73]): 0.3 µM | LC50 (concentration killing 50% of cells) (HT-29 [73]): 62 µM | TGI (HT-29 [73]): 5.1 µM | CC50 (HT-29 [74]): 8.3 µM

CCN(CC)CCNc1ccc(NCCCN(C)CCCNc2ccc(NCCN(CC)CC)c3c2C(=O)c2ccncc2C3=O)c2c1C(=O)c1cnccc1C2=O
Ratio [38]: 5 | GI50 (HT-29 [73]): > 100 µM
